Experimental data published in article PMC12292862 (Biomedicines, 2025).
Entries after “also recorded” stand apart in the source; their conditions may differ. Marks after values point to notes of the source that are not given here.

Columns and labels:
TNF-α = assay: Serum TNF-α (ELISA) in carrageenan-injected rats; assay type: in vivo, rat; details: compounds 200 mg/kg i.p., indomethacin 10 mg/kg, mean ± SD
Experimental: (§1) The selective pro-inflammatory cytokines were measured quantitatively using rat-specific Enzyme-Linked Immunosorbent Assay (ELISA) kits from Thermo Scientific™ (Waltham, MA, USA) with CAT. No. ERCRP for CRP; from Elabscience with Cat. No. E-EL-R2856 for TNF-α and with Cat. No. E-EL-R0011 for IL-1α; from CUSABIO, Houston, TX, USA, with Cat. No. CSB-E04640r for IL-6; and from My BioSource Co, USA, with Cat. No. MBS825017 for IL-1β, with Cat. No. MBS753621 for rat cyclooxygenase 1, and with Cat. No. MBS266603 for rat cyclooxygenase 2. Meanwhile, an ovine COX inhibitor-screening in vitro assay (item number 760111) was obtained from Cayman Chemical (Ann Arbor, MI, USA). We purchased malondialdehyde (MDA), glutathione (GSH), and superoxide dismutase (SOD) detection kits from Nanjing Jiancheng Bio-Technology Co. Ltd. (Nanjing, China).
(§2) At the end of the experiments, the rats were subjected to anesthesia with chloroform and then sacrificed. Blood was obtained via heart puncture for biochemical analysis. Following the animals’ sacrifice, the paws were taken out, decalcified, and stored in a 10% formalin solution. To prepare the tissue samples, they were sliced into thicknesses of 5 µm. Hematoxylin and eosin dyes were used to create the histology slides, which were then examined using a photomicroscope (Meiji Techno®, Iruma, Japan) for pathological alterations. The presence of inflammation was documented. Protease/phosphatase inhibitor cocktail in cold phosphate-buffered saline (1:4) (pH 7, 0.01 mol/L) (Cat. No. PPC1010, Sigma-Aldrich) was used to homogenize each rat’s paw piece in a glass homogenizer. After filtering and centrifuging the resultant homogenate for five minutes at 5000× g, oxidative stress biomarkers like GSH, SOD, and MDA were measured. The trials were repeated three times.

IL-1β = assay: Serum IL-1β (ELISA) in carrageenan-injected rats; assay type: in vivo, rat; details: compounds 200 mg/kg i.p., indomethacin 10 mg/kg, mean ± SD
Experimental: as §1, §2

IL-6 = assay: Serum IL-6 (ELISA) in carrageenan-injected rats; assay type: in vivo, rat; details: compounds 200 mg/kg i.p., indomethacin 10 mg/kg, mean ± SD
Experimental: as §1, §2

rat cyclooxygenase 2 = assay: COX-2 level in carrageenan-injected paw (ELISA); assay type: in vivo; details: compounds 200 mg/kg i.p., indomethacin 10 mg/kg, mean ± SD
Experimental: as §1, with “Meanwhile, an ovine COX inhibitor-screening in vitro assay (item number 760111) was obtained from Cayman Chemical (Ann Arbor, MI, USA).” left out
as §2

[1] = tested on: carrageenan-induced rat paw edema; assay: Carrageenan-induced paw edema; assay type: in vivo; details: compounds 200 mg/kg i.p., indomethacin 10 mg/kg, 4 h after carrageenan
Source text: Rats’ carrageenan-induced paw edema model was used to assess the novel synthesized drugs’ anti-inflammatory properties. A total of 180–190 g of male Wistar rats were used for the experiments. In the animal house at Sohag University in Sohag, Egypt, every animal was kept in careful laboratory conditions. After being weighed and divided into six groups at random, the animals are housed for a week to reduce stress and allow them to get used to the laboratory environment. The chemicals that were synthesized were administered intraperitoneally (i.p.) to rats at a dosage of 200 mg/kg. The control group received only vehicles. […] The rats were given a 0.2 mL sub-plantar injection of a 1% (w/v) suspension of carrageenan (made in PBS) in their right hind paw thirty minutes following the injection of synthesized compounds [33]. […] The % inhibition of paw edema was calculated by the following formula [34]:%Inhibition = ((Mean edema of control group − Mean edema of test compound)/(Mean edema of control group)) × 100.

rat cyclooxygenase 1 = assay: COX-1 level in carrageenan-injected paw (ELISA); assay type: in vivo; details: compounds 200 mg/kg i.p., indomethacin 10 mg/kg, mean ± SD
Experimental: as §1, §2

COX-2 = assay: In vitro colorimetric COX (ovine) inhibitor-screening assay, COX-2; assay type: biochemical; details: ovine COX-2, tested at 50, 100 and 150 µg/mL
Experimental: The test compounds’ ability to suppress COX-1 and COX-2 was evaluated using a colorimetric COX (ovine) inhibitor-screening method (Cayman Chemical, Item Number 760111). In brief, 150 μL of assay buffer, 10 μL of heme, 10 μL of enzyme (COX-1 or COX-2), and 10 μL of compound (1 mg/mL) make up the reaction mixture. In a final volume of […], the test compounds were evaluated at doses of 50, 100, and 150 μg/mL. The cyclooxygenase peroxidase component is used in the experiment. By monitoring the appearance of oxidized N, N, […] (TMPD) at 590 nm, the peroxidase activity is measured […]. […] The following formula was used to determine the % COX inhibition: The COX inhibition activity percentage is equal to (1 − T/C ×100), where T is the inhibitor well’s absorbance and C is the starting activity’s absorbance at 100% without the inhibitor well.

[2] = tested on: rat paw tissue dermal collagen; assay: Sirius Red staining of dermal collagen in paw tissue; assay type: in vivo; details: carrageenan-injected paw; compounds 200 mg/kg i.p., indomethacin 10 mg/kg
IL-1α = assay: Serum IL-1α (ELISA) in carrageenan-injected rats; assay type: in vivo, rat; details: compounds 200 mg/kg i.p., indomethacin 10 mg/kg, mean ± SD
Experimental: as §1, §2

rat paw tissue [3] = assay: Histomorphometry lesion scores of paw tissue sections; assay type: in vivo; details: vs carrageenan group
rat paw tissue [4] = assay: Histopathological examination of paw tissue (HE); assay type: in vivo; details: carrageenan-injected paw; compounds 200 mg/kg i.p., indomethacin 10 mg/kg
Source text: as §2

CRP = assay: Serum CRP (ELISA) in carrageenan-injected rats; assay type: in vivo, rat; details: compounds 200 mg/kg i.p., indomethacin 10 mg/kg, mean ± SD
Experimental: as §1, §2

Question: With `COc1ccc2c(c1)c(CC(=O)O)c(C)n2C(=O)c1ccc(Cl)cc1` [indomethacin, reference compound] as the molecule, how does the TNF-α (TNF-α) read?
Answer: 11.30 ± 0.30 ^b pg/mL

Question: What about the IL-1β (IL-1β) of the same molecule?
Answer: 92.86 ± 0.47 ^b pg/mL

Question: And the IL-6 (IL-6)?
Answer: 18.49 ± 0.27 ^b pg/mL

Question: And the COX-2 level (rat cyclooxygenase 2)?
Answer: 5.11 ± 0.13 ng/mL

Question: And the “inhibition of paw edema after 4 h” value [1]?
Answer: 57.66%

Question: What about the COX-1 level (rat cyclooxygenase 1) of the same molecule?
Answer: 6.31 ± 0.08 ng/mL

Question: What about the “COX-2 inhibition % (mean activity)” value (COX-2) of the same molecule?
Answer: 97%

Question: What about the “dermal collagen content and distribution (Sirius Red)” value [2] of the same molecule?
Answer: marked dispersed collagenous fibers; also recorded: markedly dispersed and less organized

Question: What about the IL-1α (IL-1α) of the same molecule?
Answer: 79.28 ± 0.55 ^b pg/mL

Question: What about the inflammation scores (rat paw tissue [3]; Figure 11A) of the same molecule?
Answer: significantly reduced inflammation scores

Question: And the vascular alteration scores (rat paw tissue [3]; Figure 11C)?
Answer: significantly mitigated vascular alterations

Question: And the “histopathological findings of paw tissue (HE)” value (rat paw tissue [4])?
Answer: marked edema

Question: What about the CRP (CRP) of the same molecule?
Answer: 6.23 ± 0.22 ^b ng/mL
